Earlier results as cited in US20090311335A1, “COMBINATION OF A TRIPTAN AND AN NSAID” (priority 2008, published 2009).

How the values were obtained:
[1] = oral 75 mg or 150 mg, dual-release formulation
[2] = single intravenous dose, range 5 to 60 mg

| SMILES | efficacy and tolerability in acute treatment of migraine attacks [1] | solubility in methanol (methanol) | solubility in strong acids and bases (strong acids and bases) | solubility in water (water) | dose proportionality of pharmacokinetics [2] |
| --- | --- | --- | --- | --- | --- |
| CC(C(=O)O)c1cccc(C(=O)c2ccccc2)c1 (centres unmarked) [ketoprofen] | effective and well-tolerated |  |  |  |  |
| Cc1cnc(NC(=O)C2=C(O)c3ccccc3S(=O)(=O)N2C)s1 [Meloxicam, 4-hydroxy-2-methyl-N-(5-methyl-2-thiazolyl-)-2-H-1,2-benzothiazine-3-carboxamide 1,1-dioxide] |  | very slightly soluble | higher solubility | practically insoluble | dose-proportional |
